Tests used:
[1] = system: JAK1-dependent STAT6 phosphorylation downstream of IL-13 stimulation in BEAS-2B cells; experiment: JAK1 pathway assay in cell lines: IL-13 p-STAT6 BEAS-2B; type: cell-based; conditions: BEAS-2B human bronchial epithelial cells, 1 hr compound, IL-13 15 min, MSD readout
Method in brief: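 Phospho-STAT6 read by MSD electrochemiluminescence in lysates of BEAS-2B cells kept in complete growth medium. Cells were pretreated 1 hr at 37 °C with compound (0.2% DMSO final) and stimulated 15 min with IL-13 at its EC90; EC50 is the concentration halving signal versus DMSO.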

[2] = target: T1, isolated recombinant JAK1 kinase domain (Homo sapiens, UniProt P23458); experiment: JAK enzyme assay, JAK1 kinase domain (Caliper LabChip); type: biochemical; conditions: 1.5 nM JAK1, ATP 25 μM, Morrison tight binding model
T1 construct: isolated recombinant JAK1 and JAK2 kinase domain
Method in brief: (§1)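 Ki values were obtained by Morrison tight-binding analysis with ATP-competitive correction, Ki=Ki,app/(1+[ATP]/Km,app). Phosphorylated versus total fluorescent JAK3-derived peptide was quantified on a Caliper LabChip. Kinase reactions with the isolated recombinant domains ran 30 min at 22 °C before EDTA quench (50 mM final).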

[3] = target: T2, isolated recombinant JAK2 kinase domain (Homo sapiens, UniProt O60674); experiment: JAK enzyme assay, JAK2 kinase domain (Caliper LabChip); type: biochemical; conditions: 0.2 nM JAK2, ATP 25 μM, Morrison tight binding model
T2 construct: isolated recombinant JAK1 and JAK2 kinase domain
Method in brief: as §1

T2 sequence (O60674 849-1124 limits assumed): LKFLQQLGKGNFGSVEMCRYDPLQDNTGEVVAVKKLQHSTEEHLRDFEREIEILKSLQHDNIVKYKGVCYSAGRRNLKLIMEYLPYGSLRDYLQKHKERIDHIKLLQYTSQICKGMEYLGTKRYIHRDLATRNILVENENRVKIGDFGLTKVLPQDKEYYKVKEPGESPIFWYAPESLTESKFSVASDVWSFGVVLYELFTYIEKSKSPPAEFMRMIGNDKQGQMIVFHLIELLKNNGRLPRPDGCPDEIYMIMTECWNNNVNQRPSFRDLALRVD
T1 sequence (P23458 875-1153 limits assumed): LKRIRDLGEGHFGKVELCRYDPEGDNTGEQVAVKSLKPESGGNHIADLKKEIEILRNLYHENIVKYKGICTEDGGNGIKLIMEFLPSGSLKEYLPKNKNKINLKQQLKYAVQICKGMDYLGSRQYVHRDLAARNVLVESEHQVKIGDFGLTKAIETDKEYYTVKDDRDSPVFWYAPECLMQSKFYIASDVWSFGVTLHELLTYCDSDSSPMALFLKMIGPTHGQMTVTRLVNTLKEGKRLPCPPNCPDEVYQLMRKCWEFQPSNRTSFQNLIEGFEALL

| SMILES | Ki [2] [nM] | Ki [3] [nM] | EC50 [1] [nM] |
| --- | --- | --- | --- |
| N#CCC1(c2cccc(Cl)c2)CN(c2cccn3nc(Nc4cnn(CC(=O)N5CCN(C6COC6)CC5)c4)nc23)C1 [Example 69, 2-[3-(3-chlorophenyl)-1-[2-[[1-[2-[4-(oxetan-3-yl)piperazin-1-yl]-2-oxo-ethyl]pyrazol-4-yl]amino]-[1,2,4]triazolo[1,5-a]pyridin-8-yl]azetidin-3-yl]acetonitrile] | 0.3 | 0.5 | 21 |
| CCc1cnn(C2(CC#N)CN(c3cccn4nc(Nc5cnn(CC(=O)N6CCC(NCC(C)(F)F)CC6)c5)nc34)C2)c1 [Example 30, 2-[1-[2-[[1-[2-[4-(2,2-difluoropropylamino)-1-piperidyl]-2-oxo-ethyl]pyrazol-4-yl]amino]-[1,2,4]triazolo[1,5-a]pyridin-8-yl]-3-(4-ethylpyrazol-1-yl)azetidin-3-yl]acetonitrile] | 0.7 | 2.7 | 104 |
| CCc1cnn(C2(CC#N)CN(c3cccn4nc(Nc5cnn(C)c5)nc34)C2)c1 [Example 127, 2-(3-(4-ethyl-1H-pyrazol-1-yl)-1-(2-((1-methyl-H-pyrazol-4-yl)amino)-[1,2,4]triazolo[1,5-a]pyridin-8-yl)azetidin-3-yl)acetonitrile] | 0.2 | 0.4 | 10 |
| N#CCC1(n2cc(C(F)(F)F)cn2)CN(c2cccn3nc(Nc4ccc5c(c4)CCN(C4COC4)C5)nc23)C1 [Example 121, 2-[1-[2-[[2-(oxetan-3-yl)-3,4-dihydro-1H-isoquinolin-6-yl]amino]-[1,2,4]triazolo[1,5-a]pyridin-8-yl]-3-[4-(trifluoromethyl)pyrazol-1-yl]azetidin-3-yl]acetonitrile] | 0.5 | 4.4 | 31 |
| CCc1cnn(C2(CC#N)CN(c3cccn4nc(Nc5cnn(CC(=O)N(C)C)c5)nc34)C2)c1 [Example 143, 2-[4-[[8-[3-(cyanomethyl)-3-(4-ethylpyrazol-1-yl)azetidin-1-yl]-[1,2,4]triazolo[1,5-a]pyridin-2-yl]amino]pyrazol-1-yl]-N,N-dimethyl-acetamide] | 0.6 | 1.7 | 31 |
| N#CCC1(n2cc(C(F)(F)F)cn2)CN(c2cccn3nc(Nc4cnn(CCCO)c4)nc23)C1 [Example 136] | 0.9 | 0.8 | 20 |
| CC(C)(C#N)CCN1CCN(C(=O)Cn2cc(Nc3nc4c(N5CC(CC#N)(n6cc(C(F)(F)F)cn6)C5)cccn4n3)cn2)CC1 [Example 107, 4-[4-[2-[4-[[8-[3-(cyanomethyl)-3-[4-(trifluoromethyl)pyrazol-1-yl]azetidin-1-yl]-[1,2,4]triazolo[1,5-a]pyridin-2-yl]amino]pyrazol-1-yl]acetyl]piperazin-1-yl]-2,2-dimethyl-butanenitrile] | 0.4 | 1.1 | 44 |
| CCc1cnn(C2(CC#N)CN(c3cccn4nc(Nc5cnn(CC(=O)N6CCC(N(C)CC7(C#N)CC7)CC6)c5)nc34)C2)c1 [Example 45, 1-[[[1-[2-[4-[[8-[3-(cyanomethyl)-3-(4-ethylpyrazol-1-yl)azetidin-1-yl]-[1,2,4]triazolo[1,5-a]pyridin-2-yl]amino]pyrazol-1-yl]acetyl]-4-piperidyl]-methyl-amino]methyl]cyclopropane carbonitrile] | 0.3 | 0.8 | 21 |
| CN1CCN(C(=O)Cn2cc(Nc3nc4c(N5CC(CC#N)(c6ccc(F)c(Cl)c6)C5)cccn4n3)cn2)CC1 [Example 83, 2-[3-(3-chloro-4-fluoro-phenyl)-1-[2-[[1-[2-(4-methylpiperazin-1-yl)-2-oxo-ethyl]pyrazol-4-yl]amino]-[1,2,4]triazolo[1,5-a]pyridin-8-yl]azetidin-3-yl]acetonitrile] | 0.2 | 0.2 | 14 |
| CCc1cnn(C2(CC#N)CN(c3cccn4nc(Nc5cnn(CC(=O)N6CCC(CN7CCN(CC(=O)N(C)C)CC7)CC6)c5)nc34)C2)c1 [Example 42, 2-[4-[[1-[2-[4-[[8-[3-(cyanomethyl)-3-(4-ethylpyrazol-1-yl)azetidin-1-yl]-[1,2,4]triazolo[1,5-a]pyridin-2-yl]amino]pyrazol-1-yl]acetyl]-4-piperidyl]methyl]piperazin-1-yl]-N,N-dimethyl-acetamide] | 0.4 | 2.2 | 42 |
| CCc1cnn(C2(CC#N)CN(c3cccn4nc(Nc5ccc(C(=O)NCCN6CCOCC6)cc5)nc34)C2)c1 [Example 66, 4-[[8-[3-(cyanomethyl)-3-(4-ethylpyrazol-1-yl)azetidin-1-yl]-[1,2,4]triazolo[1,5-a]pyridin-2-yl]amino]-N-(2-morpholinoethyl)benzamide] | 0.3 | 0.5 | 31 |

The next lines start with results.

| Ki [2] [nM] | Ki [3] [nM] | SMILES | EC50 [1] [nM] |
| --- | --- | --- | --- |
| 0.3 | 0.2 | CSc1cnn(C2(CC#N)CN(c3cccn4nc(Nc5cnn(CC(=O)N6CCN(C)CC6)c5)nc34)C2)c1 [Example 119] | 16 |
| 1.3 | 5.8 | CN1CCN(C(=O)Cn2cc(Nc3nc4c(N5CC(CC#N)(N6CCC(C(F)(F)F)CC6)C5)cccn4n3)cn2)CC1 [Example 11] | 37 |
| 0.4 | 2.9 | CCc1ccc(C2(CC#N)CN(c3cccn4nc(Nc5cnn(CC(=O)N6CCN(C)CC6)c5)nc34)C2)cc1 [Example 60, 2-[3-(4-ethylphenyl)-1-[2-[[1-[2-(4-methylpiperazin-1-yl)-2-oxo-ethyl]pyrazol-4-yl]amino]-[1,2,4]triazolo[1,5-a]pyridin-8-yl]azetidin-3-yl]acetonitrile] | 19 |
| 0.7 | 1.5 | CN1CCN(C(=O)Cn2cc(Nc3nc4c(N5CC(CC#N)(n6cccn6)C5)cccn4n3)cn2)CC1 [Example 18] | 21 |
| 0.3 | 0.5 | Cn1cc(Nc2nc3c(N4CC(CC#N)(n5cc(Br)cn5)C4)cccn3n2)cn1 [Example 132, 2-[3-(4-bromopyrazol-1-yl)-1-[2-[(l-methylpyrazol-4-yl)amino]-[1,2,4]triazolo[1,5-a]pyridin-8-yl]azetidin-3-yl]acetonitrile] | 51 |
| 0.4 | 0.3 | CCc1cnn(C2(CC#N)CN(c3cccn4nc(Nc5cnn(CC(=O)N6CCC(N(C)C7COC7)CC6)c5)nc34)C2)c1 [Example 34, 2-[3-(4-ethylpyrazol-1-yl)-1-[2-[[1-[2-[4-[methyl(oxetan-3-yl)amino]-1-piperidyl]-2-oxo-ethyl]pyrazol-4-yl]amino]-[1,2,4]triazolo[1,5-a]pyridin-8-yl]azetidin-3-yl]acetonitrile] | 15 |
| 0.2 | 0.2 | N#CCC1(c2cccc(Cl)c2)CN(c2cccn3nc(Nc4cnn(CC(=O)N5CCN(CCN6CCOCC6)CC5)c4)nc23)C1 [Example 82, 2-[3-(3-chlorophenyl)-1-[2-[[1-[2-[4-(2-morpholinoethyl)piperazin-1-yl]-2-oxo-ethyl]pyrazol-4-yl]amino]-[1,2,4]triazolo[1,5-a]pyridin-8-yl]azetidin-3-yl]acetonitrile] | 22 |
| 0.3 | 0.3 | N#CCC1(n2cc(C(F)(F)F)cn2)CN(c2cccn3nc(Nc4cnn(CCO)c4)nc23)C1 [Example 134, 2-[1-[2-[[1-(2-hydroxyethyl)pyrazol-4-yl]amino]-[1,2,4]triazolo[1,5-a]pyridin-8-yl]-3-[4-(trifluoromethyl)pyrazol-1-yl]azetidin-3-yl]acetonitrile] | 13 |
| 1 | 3 | CCCc1cnn(C2(CC#N)CN(c3cccn4nc(Nc5cnn(CC(=O)N6CCN(C)CC6)c5)nc34)C2)c1 [Example 22] | 36 |
| 0.3 | 0.6 | CSc1cnn(C2(CC#N)CN(c3cccn4nc(Nc5cnn(C)c5)nc34)C2)c1 [Example 147, 2-[1-[2-[(1-methylpyrazol-4-yl)amino]-[1,2,4]triazolo[1,5-a]pyridin-8-yl]-3-(4-methylsulfanylpyrazol-1-yl)azetidin-3-yl]acetonitrile] | 10 |
| 1.1 | 7.3 | Cc1ccccc1-c1cnn(C2(CC#N)CN(c3cccn4nc(Nc5cnn(CC(=O)N6CCC(NCC7(C#N)CC7)CC6)c5)nc34)C2)c1 [Example 118, 1-[[[1-[2-[4-[[8-[3-(cyanomethyl)-3-[4-(o-tolyl)pyrazol-1-yl]azetidin-1-yl]-[1,2,4]triazolo[1,5-a]pyridin-2-yl]amino]pyrazol-1-yl]acetyl]-4-piperidyl]amino]methyl]cycl opropanecarbonitrile] | 99 |
| 0.5 | 1.8 | Cc1cc(C2(CC#N)CN(c3cccn4nc(Nc5cnn(CC(=O)N6CCN(C)CC6)c5)nc34)C2)ccc1Cl [Example 27, 2-[3-(4-chloro-3-methyl-phenyl)-1-[2-[[1-[2-(4-methylpiperazin-1-yl)-2-oxo-ethyl]pyrazol-4-yl]amino]-[1,2,4]triazolo[1,5-a]pyridin-8-yl]azetidin-3-yl]acetonitrile] | 51 |
| 0.2 | 0.3 | N#CCC1(n2cc(OC(F)F)cn2)CN(c2cccn3nc(Nc4cn[nH]c4)nc23)C1 [Example 146, 2-[3-[4-(difluoromethoxy)pyrazol-1-yl]-1-[2-(1H-pyrazol-4-ylamino)-[1,2,4]triazolo[1,5-a]pyridin-8-yl]azetidin-3-yl]acetonitrile] | 7 |
